Measurements reported in PMC9893751, “Synthesis of Benzimidazole-1,2,4-triazole Derivatives as Potential Antifungal Agents Targeting 14α-Demethylase” (ACS Omega, 2023).
Values after ≈ are worked out from the molar mass of the structure shown.

What was measured:
C. glabrata (ATCC 9) = assay: In vitro antifungal activity (CLSI) against C. glabrata; type: cell-based; conditions: for MIC: Nakaseomyces glabratus, ATCC9; for MIC / Antifungal activity (MIC), C. glabrata: C. glabrata ATCC 9; for Effectiveness against C. glabrata compared with fluconazole / Effectiveness against C. glabrata compared with voriconazole: from MIC values
Description: (§1) Voriconazole and fluconazole (against candida strains) were used as standard reference drugs.

[1] = test system: C. parapsilopsis (ATCC 22019); assay: In vitro antifungal activity (CLSI) against C. parapsilosis; type: cell-based; conditions: for MIC: Lodderomyces parapsilosis, ATCC22019
Description: as §1

C. albicans (ATCC 24433) = assay: In vitro antifungal activity (CLSI) against C. albicans; type: cell-based; conditions: for MIC: Candida albicans, ATCC24433
Description: as §1

C. krusei (ATCC 6258) = assay: In vitro antifungal activity (CLSI) against C. krusei; type: cell-based; conditions: for MIC: Pichia kudriavzevii, ATCC6258
Description: as §1

[2] = Cytotoxicity MTT assay on L929 fibroblasts; type: cell-based; conditions: mouse, L929 fibroblast cells; 100 μM, 48 h, L929 cell lines, MTT
Description: (§2) The cytotoxic effect of compounds 6a–6l was evaluated against L929 cell lines. For preliminary screening, the cytotoxic bioactivity of synthesized compounds was evaluated in vitro against L929 cell lines with the MTT assay. […] The effect of the compounds 6a–6l on the viability of L929 cell lines was analyzed by MTT assay as described in the previous work.[45]

L929 cell lines = assay: Cytotoxicity MTT assay on L929 fibroblasts; type: cell-based
Description: as §2

Compound: OC(Cn1cncn1)(Cn1cncn1)c1ccc(F)cc1F [fluconazole, reference compound]
- MIC (C. glabrata (ATCC 9)): 3.9 µg/mL (≈ 12.7 µM)
- MIC [1]: 3.9 µg/mL (≈ 12.7 µM)
- MIC (C. albicans (ATCC 24433)): 7.81 µg/mL (≈ 25.5 µM)
- MIC (C. krusei (ATCC 6258)): 7.81 µg/mL (≈ 25.5 µM)

Compound: N#Cc1ccc2nc(-c3ccc(-c4nnc(SCC(=O)c5ccc(Cl)cc5Cl)n4-c4ccccc4)cc3)[nH]c2c1 [6j, 2-(4-(5-((2-(2,4-Dichlorophenyl)-2-oxoethyl)thio)-4-phenyl-4H-1,2,4-triazol-3-yl)phenyl)-1H-benz[d]imidazole-5(6)-carbonitrile]
- viability at 48 h, 100 µM [2]: 32.5 ± 1.34%
- MIC (C. glabrata (ATCC 9)): 0.97 µg/mL (≈ 1.67 µM)
- Effectiveness against C. glabrata compared with fluconazole (C. glabrata (ATCC 9)): four times more effective
- Effectiveness against C. glabrata compared with voriconazole (C. glabrata (ATCC 9)): two times more effective
- MIC [1]: 31.2 µg/mL (≈ 53.7 µM)
- melting point: 206.5 °C
- MIC (C. albicans (ATCC 24433)): 62.5 µg/mL (≈ 107 µM)
- MIC (C. krusei (ATCC 6258)): 125 µg/mL (≈ 215 µM)

Compound: N#Cc1ccc2[nH]c(-c3ccc(-c4nnc(SCC(=O)c5cccc([N+](=O)[O-])c5)n4-c4ccccc4)cc3)nc2c1 [6k, 2-(4-(5-((2-(3-Nitrophenyl)-2-oxoethyl)thio)-4-phenyl-4H-1,2,4-triazol-3-yl)phenyl)-1H-benz[d]imidazole-5(6)-carbonitrile]
- cell viability (%) (L929 cell lines; 100 µM): 30.3 ± 0.41%
- Antifungal activity (MIC), C. glabrata (C. glabrata (ATCC 9)): 1.95 µg/mL
- Effectiveness against C. glabrata compared with fluconazole (C. glabrata (ATCC 9)): two times more effective
- Effectiveness against C. glabrata compared with voriconazole (C. glabrata (ATCC 9)): same activity
- Antifungal activity (MIC), C. parapsilosis [1]: 31.25 µg/mL
- Antifungal activity (MIC), C. albicans (C. albicans (ATCC 24433)): 31.25 µg/mL
- Antifungal activity (MIC), C. krusei (C. krusei (ATCC 6258)): 125 µg/mL

Compound: N#Cc1ccc2[nH]c(-c3ccc(-c4nnc(SCC(=O)c5ccccc5)n4-c4ccccc4)cc3)nc2c1 [6l, 2-(4-(5-((2-Oxo-2-phenylethyl)thio)-4-phenyl-4H-1,2,4-triazol-3-yl)phenyl)-1H-benz[d]imidazole-5(6)-carbonitrile]
- cell viability (%) (L929 cell lines; 100 µM): 37.6 ± 3.55%
- Antifungal activity (MIC), C. glabrata (C. glabrata (ATCC 9)): 1.95 µg/mL
- Effectiveness against C. glabrata compared with fluconazole (C. glabrata (ATCC 9)): two times more effective
- Effectiveness against C. glabrata compared with voriconazole (C. glabrata (ATCC 9)): same activity
- Antifungal activity (MIC), C. parapsilosis [1]: 31.25 µg/mL
- Antifungal activity (MIC), C. albicans (C. albicans (ATCC 24433)): 31.25 µg/mL
- Antifungal activity (MIC), C. krusei (C. krusei (ATCC 6258)): 125 µg/mL

Compound: COc1ccc(C(=O)CSc2nnc(-c3ccc(-c4nc5cc(C#N)ccc5[nH]4)cc3)n2-c2ccccc2)cc1 [6b, 2-(4-(5-((2-(4-Methoxyphenyl)-2-oxoethyl)thio)-4-phenyl-4H-1,2,4-triazol-3-yl)phenyl)-1H-benz[d]imidazole-5(6)-carbonitrile]
- viability at 48 h, 100 µM [2]: 32.1 ± 1.38%
- MIC (C. glabrata (ATCC 9)): 0.97 µg/mL (≈ 1.79 µM)
- Effectiveness against C. glabrata compared with fluconazole (C. glabrata (ATCC 9)): four times more effective
- Effectiveness against C. glabrata compared with voriconazole (C. glabrata (ATCC 9)): two times more effective
- MIC [1]: 31.2 µg/mL (≈ 57.6 µM)
- melting point: 177.6 °C
- MIC (C. albicans (ATCC 24433)): 31.2 µg/mL (≈ 57.6 µM)
- MIC (C. krusei (ATCC 6258)): 125 µg/mL (≈ 230 µM)

Compound: N#Cc1ccc(C(=O)CSc2nnc(-c3ccc(-c4nc5cc(C#N)ccc5[nH]4)cc3)n2-c2ccccc2)cc1 [6c, 2-(4-(5-((2-(4-Cyanophenyl)-2-oxoethyl)thio)-4-phenyl-4H-1,2,4-triazol-3-yl)phenyl)-1H-benz[d]imidazole-5(6)-carbonitrile]
- cell viability (%) (L929 cell lines; 100 µM): 30.9 ± 1.42%
- Antifungal activity (MIC), C. glabrata (C. glabrata (ATCC 9)): 1.95 µg/mL
- Effectiveness against C. glabrata compared with fluconazole (C. glabrata (ATCC 9)): two times more effective
- Effectiveness against C. glabrata compared with voriconazole (C. glabrata (ATCC 9)): same activity
- Antifungal activity (MIC), C. parapsilosis [1]: 31.25 µg/mL
- Antifungal activity (MIC), C. albicans (C. albicans (ATCC 24433)): 31.25 µg/mL
- Antifungal activity (MIC), C. krusei (C. krusei (ATCC 6258)): 125 µg/mL

Compound: N#Cc1ccc2[nH]c(-c3ccc(-c4nnc(SCC(=O)c5ccc(-c6ccccc6)cc5)n4-c4ccccc4)cc3)nc2c1 [6e, 2-(4-(5-((2-([1,1′-Biphenyl]-4-yl)2-oxoethyl)thio)-4-phenyl-4H-1,2,4-triazol-3-yl)phenyl)-1H-benz[d]imidazole-5(6)-carbonitrile]
- cell viability (%) (L929 cell lines; 100 μM, 48 h, L929 cell lines, MTT): 40 ± 8.71%
- Antifungal activity (MIC), C. glabrata (C. glabrata (ATCC 9)): 1.95 µg/mL
- Effectiveness against C. glabrata compared with fluconazole (C. glabrata (ATCC 9)): two times more effective
- Effectiveness against C. glabrata compared with voriconazole (C. glabrata (ATCC 9)): same activity
- Antifungal activity (MIC), C. parapsilosis [1]: 62.5 µg/mL
- Antifungal activity (MIC), C. albicans (C. albicans (ATCC 24433)): 62.5 µg/mL
- Antifungal activity (MIC), C. krusei (C. krusei (ATCC 6258)): 125 µg/mL

Compound: 2-(4-(5-((2-(4-Nitrophenyl)-2-oxoethyl)thio)-4-phenyl-4H-1,2,4-triazol-3-yl)phenyl)-1H-benz[d]imidazole-5(6)-carbonitrile [6a]
- cell viability (%) (L929 cell lines; 100 µM): 34 ± 6.19%
- Antifungal activity (MIC), C. glabrata (C. glabrata (ATCC 9)): 1.95 µg/mL
- Effectiveness against C. glabrata compared with fluconazole (C. glabrata (ATCC 9)): two times more effective
- Effectiveness against C. glabrata compared with voriconazole (C. glabrata (ATCC 9)): same activity
- Antifungal activity (MIC), C. parapsilosis [1]: 62.5 µg/mL
- Antifungal activity (MIC), C. albicans (C. albicans (ATCC 24433)): 31.25 µg/mL
- Antifungal activity (MIC), C. krusei (C. krusei (ATCC 6258)): 125 µg/mL

Compound: N#Cc1ccc2[nH]c(-c3ccc(-c4nnc(SCC(=O)c5ccc(F)cc5F)n4-c4ccccc4)cc3)nc2c1 [6h, 2-(4-(5-((2-(2,4-Difluorophenyl)-2-oxoethyl)thio)-4-phenyl-4H-1,2,4-triazol-3-yl)phenyl)-1H-benz[d]imidazole-5(6)-carbonitrile]
- cell viability (%) (L929 cell lines; 100 µM): 28.1 ± 1.48%
- Antifungal activity (MIC), C. glabrata (C. glabrata (ATCC 9)): 1.95 µg/mL
- Effectiveness against C. glabrata compared with fluconazole (C. glabrata (ATCC 9)): two times more effective
- Effectiveness against C. glabrata compared with voriconazole (C. glabrata (ATCC 9)): same activity
- Antifungal activity (MIC), C. parapsilosis [1]: 62.5 µg/mL
- Antifungal activity (MIC), C. albicans (C. albicans (ATCC 24433)): 62.5 µg/mL
- Antifungal activity (MIC), C. krusei (C. krusei (ATCC 6258)): 62.5 µg/mL

Compound: C[C@@H](c1ncncc1F)[C@](O)(Cn1cncn1)c1ccc(F)cc1F [voriconazole, reference compound]
- MIC (C. glabrata (ATCC 9)): 1.95 µg/mL (≈ 5.58 µM)
- MIC [1]: 3.9 µg/mL (≈ 11.2 µM)
- MIC (C. albicans (ATCC 24433)): 3.9 µg/mL (≈ 11.2 µM)
- MIC (C. krusei (ATCC 6258)): 3.9 µg/mL (≈ 11.2 µM)

Compound: N#Cc1ccc2[nH]c(-c3ccc(-c4nnc(SCC(=O)c5ccc(Br)cc5)n4-c4ccccc4)cc3)nc2c1 [6f, 2-(4-(5-((2-(4-Bromophenyl)-2-oxoethyl)thio)-4-phenyl-4H-1,2,4-triazol-3-yl)phenyl)-1H-benz[d]imidazole-5(6)-carbonitrile]
- cell viability (%) (L929 cell lines; 100 µM): 27.6 ± 1.02%
- Antifungal activity (MIC), C. glabrata (C. glabrata (ATCC 9)): 1.95 µg/mL
- Effectiveness against C. glabrata compared with fluconazole (C. glabrata (ATCC 9)): two times more effective
- Effectiveness against C. glabrata compared with voriconazole (C. glabrata (ATCC 9)): same activity
- Antifungal activity (MIC), C. parapsilosis [1]: 62.5 µg/mL
- Antifungal activity (MIC), C. albicans (C. albicans (ATCC 24433)): 62.5 µg/mL
- Antifungal activity (MIC), C. krusei (C. krusei (ATCC 6258)): 125 µg/mL

Compound: N#Cc1ccc2[nH]c(-c3ccc(-c4nnc(SCC(=O)c5ccc(Cl)c(Cl)c5)n4-c4ccccc4)cc3)nc2c1 [6g, 2-(4-(5-((2-(3,4-Dichlorophenyl)-2-oxoethyl)thio)-4-phenyl-4H-1,2,4-triazol-3-yl)phenyl)-1H-benz[d]imidazole-5(6)-carbonitrile]
- cell viability (%) (L929 cell lines; 100 µM): 34.6 ± 3.51%
- Antifungal activity (MIC), C. glabrata (C. glabrata (ATCC 9)): 1.95 µg/mL
- Effectiveness against C. glabrata compared with fluconazole (C. glabrata (ATCC 9)): two times more effective
- Effectiveness against C. glabrata compared with voriconazole (C. glabrata (ATCC 9)): same activity
- Antifungal activity (MIC), C. parapsilosis [1]: 31.25 µg/mL
- Antifungal activity (MIC), C. albicans (C. albicans (ATCC 24433)): 125 µg/mL
- Antifungal activity (MIC), C. krusei (C. krusei (ATCC 6258)): 250 µg/mL

Compound: N#Cc1ccc2nc(-c3ccc(-c4nnc(SCC(=O)c5ccc(Cl)cc5)n4-c4ccccc4)cc3)[nH]c2c1 [6i, 2-(4-(5-((2-(4-Chlorophenyl)-2-oxoethyl)thio)-4-phenyl-4H-1,2,4-triazol-3-yl)phenyl)-1H-benz[d]imidazole-5(6)-carbonitrile]
- viability at 48 h, 100 µM [2]: 53.6 ± 2.82%
- IC50 (L929 cell lines; Mus musculus, L929 fibroblasts, MTT, maximum dose 100 μM, 48 h, read-out: IC50 against L929): > 100 µM
- MIC (C. glabrata (ATCC 9)): 0.97 µg/mL (≈ 1.77 µM)
- Effectiveness against C. glabrata compared with fluconazole (C. glabrata (ATCC 9)): four times more effective
- Effectiveness against C. glabrata compared with voriconazole (C. glabrata (ATCC 9)): two times more effective
- MIC [1]: 31.2 µg/mL (≈ 57.1 µM)
- melting point: 197.9 °C
- MIC (C. albicans (ATCC 24433)): 62.5 µg/mL (≈ 114 µM)
- MIC (C. krusei (ATCC 6258)): 125 µg/mL (≈ 229 µM)

Compound: N#Cc1ccc2[nH]c(-c3ccc(-c4nnc(SCC(=O)c5ccc(F)cc5)n4-c4ccccc4)cc3)nc2c1 [6d, 2-(4-(5-((2-(4-Fluorophenyl)-2-oxoethyl)thio)-4-phenyl-4H-1,2,4-triazol-3-yl)phenyl)-1H-benz[d]imidazole-5(6)-carbonitrile]
- cell viability (%) (L929 cell lines; 100 µM): 34.2 ± 5.13%
- Antifungal activity (MIC), C. glabrata (C. glabrata (ATCC 9)): 1.95 µg/mL
- Effectiveness against C. glabrata compared with fluconazole (C. glabrata (ATCC 9)): two times more effective
- Effectiveness against C. glabrata compared with voriconazole (C. glabrata (ATCC 9)): same activity
- Antifungal activity (MIC), C. parapsilosis [1]: 125 µg/mL
- Antifungal activity (MIC), C. albicans (C. albicans (ATCC 24433)): 62.5 µg/mL
- Antifungal activity (MIC), C. krusei (C. krusei (ATCC 6258)): 125 µg/mL
